Test results: publication PMC10058671 (Pharmaceutics, 2023)
≈ marks a conversion by molar mass, not a printed value. Where two headings read alike, the source gives them in different places.

Key:
[1] = Pharmacokinetic study after daily oral pyronaridine/artesunate in hamsters (noncompartmental analysis of observed blood, lung and trachea concentrations); design: species or system golden hamsters; conditions: for tolerability of the doses (no unscheduled deaths): 180/60 and 360/120 mg/kg pyronaridine/artesunate oral once a day for 3 days
Experimental: One hundred eight male golden hamsters were obtained from Janvier Lab. (Le Genest-Saint-Isle, France). All hamsters were maintained on a 12-h dark–light cycle at a temperature of 23 ± 3 °C and relative humidity of 55 ± 15%. This study was conducted according to the Guidelines for Ethical Conduct in the Care and Use of Animals and the rules of Good Laboratory Practice and was approved by the Institutional Animal Care and Use Committee (IACUC, protocol number SP2021-14) at Shin Poong Pharm. Co., Ltd. (Seoul, Republic of Korea).
The hamsters (102.01 ± 5.72 g) were divided into two groups: a low-dose group (n = 60) and a high-dose group (n = 48). […] Blood samples (0.5 mL) were drawn from the jugular vein into heparinized tubes at the following times: 0 (predose), 0.08, 0.25, 0.5, 0.75, 1, 2, 4, 8, 12, 24, 47, 48.08, 48.25, 48.5, 48.75, 49, 50, 52, 56, 60, and 72 h during oral administration for 3 days. The blood sampling was conducted 1–3 times per hamster within 72 h, and the tissues were collected after the last blood sampling. The number of animals was four per blood and tissue sampling time point, respectively (each n = 4). The lung and trachea tissues were immediately obtained after sacrificing hamsters, washed in normal saline, and dried with filter papers. The lung and trachea sampling times were as follows: 0.08, 0.25, 0.5, 0.75, 1, 4, 8, 24, 48.08, 48.25, 48.75, 52, and 72 h. Tissues were individually weighed and homogenized with water (lung or trachea tissue: water = 1:4 w/v). The lung and trachea tissue homogenate were stored at −70 °C until sample analysis. For pyronaridine quantification, whole blood samples were stored at −70 °C until sample analysis.
Liquid chromatography was conducted on the Agilent 1290 Infinity II LC System (Agilent Technologies Inc., Santa Clara, CA, USA) coupled to a 6490 Triple Quad Mass Spectrometer (Agilent Technologies Inc., Santa Clara, CA, USA). A Synergi Max-RP column (2.0 × 75 mm, 4 μm particle size, Phenomenex, Torrance, CA, USA) was used at a temperature of 25 °C. The mobile phase consisted of 0.04% TFA (mobile phase A) and methanol:acetonitrile (3:1 v/v, mobile phase B) with a flow rate of 0.2 mL/min. A gradient elution was used for the chromatographic separation of pyronaridine as follows: 0.0–1.5 min, 10% B; 1.5–1.6 min, 10–60% B; 1.6–4.0 min, 60% B; 4.0–4.1 min, 60–10% B; […], 10% B. The multiple reaction monitoring (MRM) mode was set with a positive electrospray ionization mode. The MRM transitions of pyronaridine and amodiaquine (internal standard, IS) were 518.2 > 447.1 and 356.2 > 283.0. The collision energy of pyronaridine and amodiaquine were 17 and 21 eV, and the cell accelerator voltage was 5 V for both compounds.
Chromatographic separation was performed with an Inertsil ODS column (2.1 × 100 mm, 5 µm particle size, GL Sciences, Tokyo, Japan) column at a temperature of 25 ℃. The mobile phase consisted of 10 mM ammonium acetate (mobile phase A) and acetonitrile (mobile phase B) with an isocratic elution (A:B = 10:90, v/v), and a flow rate of 0.2 mL/min. The mass spectrometer was operated on electrospray ionization positive mode.
Fifty μL of hamster blood, lung, or trachea tissue homogenates were added with 10 μL of the IS solution (10 μg/mL of amodiaquine). Added to the mixed sample were 125 μL of 0.5 M sodium phosphate tribasic dodecahydrate buffer (pH adjusted to 10.3 with 85% ortho-phosphoric acid) and 500 μL of ether, vortexed for 5 min and centrifuged at 21,130× g for 5 min. Then, 300 μL of supernatant were transferred to new microtubes and dried under nitrogen steam at room temperature. The dried residues were reconstituted with 100 μL of mobile phase (0.04% TFA:methanol:acetonitrile = 40:45:15, v/v/v) and vortexed for 5 min. After centrifugation at 21,130× g for 5 min, 5 μL of aliquot were injected into the UPLC-MS/MS system.
Then, 50 μL of hamster plasma, lung, or trachea tissue homogenates were added with 10 μL of the IS solution (5 μg/mL of artemisinin).

SARS-CoV-2 [2] = system: SARS-CoV-2; design: method as in PMID 34272426; conditions: range in different cell types; cited from earlier work
SARS-CoV-2 [3] = system: SARS-CoV-2; design: method as in PMID 32786284; conditions: anti-SARS-CoV-2; cited from earlier work
SARS-CoV-2 [4] = conditions: Call-3 cells, dose-dependent manner; cited from earlier work
seasonal influenza A = conditions: Call-3 cells, dose-dependent manner; cited from earlier work
[5] = rodents; cited from earlier work
[6] = in vivo; cited from earlier work
[7] = cited from earlier work
[8] = rat, in vivo; cited from earlier work
[9] = dog, in vivo; cited from earlier work
SARS-CoV-2 [10] = system: SARS-CoV-2; design: method as in PMID 32916297; conditions: in vitro anti-SARS-CoV-2; cited from earlier work
SARS-CoV-2 in Vero cells = conditions: cited from earlier work
[11] = system: SARS-CoV-2 in Vero E6 cells; design: method as in PMID 33075512; conditions: cited from earlier work
[12] = system: SARS-CoV-2 in Huh7.5 cells; design: method as in PMID 34755538; conditions: cited from earlier work
[13] = system: SARS-CoV-2 in Calu-3 cells; design: method as in PMID 34755538; conditions: cited from earlier work
SARS-CoV-2 [14] = system: SARS-CoV-2; design: method as in PMID 35609344; conditions: SARS-CoV-2 infected mice; cited from earlier work
[15] = fitted, parent-metabolite model
[16] = male, golden, hamster, in vivo, po, 180 mg/kg
[17] = male, golden, hamster, in vivo, po, 360 mg/kg

With `C[C@H]1[C@H](OC(=O)CCC(=O)O)O[C@@H]2O[C@@]3(C)CC[C@H]4[C@H](C)CC[C@@H]1[C@@]24OO3` [Artesunate, artesunate] the “tolerability of the doses (no unscheduled deaths)” value [1] was “tolerated”, the “Klung (lung-to-blood partition coefficient)” value (fitted) was 10.33 and the “Ktrachea (trachea-to-blood partition coefficient)” value (fitted) was 1.48. For the same molecule, the “ka (first-order absorption rate constant)” value (fitted) was 1.74 h⁻¹, the “klt (lung-to-trachea transfer rate constant)” value (fitted) was 0.34 h⁻¹ and the “ktl (trachea-to-lung transfer rate constant)” value (fitted) was 1.50 h⁻¹. The “CL/F (apparent total clearance)” value (hamster) was 2517.70 L/h, the EC50 (SARS-CoV-2 [2]) was 18.2 to 31.2 µM and the EC50 (SARS-CoV-2 [3]) was 13 µM. The “growth and viral replication of SARS-CoV-2” value (SARS-CoV-2 [4]) was “inhibited the growth and viral replication”, the “growth and viral replication of seasonal influenza A” value (seasonal influenza A) was “inhibited the growth and viral replication” and the maximal nonlethal dose [5] was 500 mg/kg. The elimination half-life [6] was 19.2 to 31.2 min, the “time to peak concentrations” value [6] was “less than five minutes” and the “time until concentrations decreased below the quantification limit” value [6] was 2 h.

With `C[C@H]1[C@@H](O)O[C@@H]2O[C@@]3(C)CC[C@H]4[C@H](C)CC[C@@H]1[C@@]24OO3` [Dihydroartemisinin, dihydroartemisinin] the “Klung,m (lung-to-blood partition coefficient)” value [15] was 0.34, the “Krest,m (rest of the body-to-blood partition coefficient)” value [15] was 1.21 and the “Ktrachea,m (trachea-to-blood partition coefficient)” value [15] was 1.08. The “klt,m (lung-to-trachea transfer rate constant)” value [15] was 0.35 h⁻¹, the “ktl,m (trachea-to-lung transfer rate constant)” value [15] was 6.98 h⁻¹ and the “CLm/F (apparent total clearance of metabolite)” value (hamster) was 10.33 L/h. For the same molecule, the EC50 (SARS-CoV-2 [3]) was 13.3 µM, the “blood-to-plasma ratio / partition coefficient (Kb:p, Kb:p,m)” value [7] was 0.75 and the elimination half-life [8] was 15 to 61.8 min. For the same molecule, the elimination half-life [9] was 0.39 to 0.66 h, the elimination half-life [6] was 19.2 to 31.2 min and the “time to peak concentrations” value [6] was “less than five minutes”.

With `COc1ccc2nc3cc(Cl)ccc3c(Nc3cc(CN4CCCC4)c(O)c(CN4CCCC4)c3)c2n1` [Pyronaridine, Pyronaridine tetraphosphate] the “tolerability of the doses (no unscheduled deaths)” value [1] was “tolerated”, the Kp at 3 day ([1]; male, golden, hamster, in vivo, lung-to-blood AUC ratio) was 51 and the Kp at 1 day ([1]; male, golden, hamster, in vivo, lung-to-blood AUC ratio (=AUClung/AUCblood)) was 25.5. The AUC at 1 day [1, 16] was 24100 ng·h/mL, the AUC at 3 day [1, 16] was 57100 ng·h/mL and the Cmax [1, 16] was 2700 ng/mL. It also gave an AUC at 1 day [1, 17] of 51000 ng·h/mL, an AUC at 3 day [1, 17] of 84900 ng·h/mL and a Cmax [1, 17] of 4540 ng/mL. It also gave a Tmax [1, 17] of 120 to 240 min, a Kp at 3 day ([1]; male, golden, hamster, in vivo, trachea-to-blood AUC ratio) of 16.6 and a Kp at 1 day ([1]; male, golden, hamster, in vivo, trachea-to-blood AUC ratio (=AUCtrachea/AUCblood)) of 7.17. The “Klung (lung-to-blood partition coefficient)” value (fitted) was 26.06, the “Krest (rest of the body-to-blood partition coefficient)” value (fitted) was 5.25 × 10^−7 and the “Ktrachea (trachea-to-blood partition coefficient)” value (fitted) was 8.67. For the same molecule, the “ka (first-order absorption rate constant)” value (fitted) was 0.03 h⁻¹, the “klt (lung-to-trachea transfer rate constant)” value (fitted) was 0.92 h⁻¹ and the “ktl (trachea-to-lung transfer rate constant)” value (fitted) was 1.01 h⁻¹. The “CL/F (apparent total clearance)” value (hamster) was 0.21 L/h, the EC50 (SARS-CoV-2 [10]) was 0.72 µM and the EC90 (SARS-CoV-2 [10]) was 0.75 µM. For the same molecule, the EC50 (SARS-CoV-2 in Vero cells; after 24 h of culture) was 0.5699 µg/mL (≈ 1.1 µM), the EC50 (SARS-CoV-2 in Vero cells; after 48 h of culture) was 1.1397 µg/mL (≈ 2.2 µM) and the EC50 [11] was 0.373 µg/mL (≈ 0.72 µM). For the same molecule, the “concentration showing anti-SARS-CoV-2 activity” value [12] was 103.6 ng/mL, the “concentration showing anti-SARS-CoV-2 activity” value [13] was 8.6 ng/mL and the “viral load in the lungs” value (SARS-CoV-2 [14]) was “significant inhibition of the viral load in the lungs”. For the same molecule, the “growth and viral replication of SARS-CoV-2” value (SARS-CoV-2 [4]) was “inhibited the growth and viral replication”, the “growth and viral replication of seasonal influenza A” value (seasonal influenza A) was “inhibited the growth and viral replication” and the blood-to-plasma ratio [7] was 4.9–17.8. For the same molecule, the maximal nonlethal dose [5] was 1500 mg/kg, the elimination half-life [8] was “two to four days” and the elimination half-life [9] was 60 h.
